EP0616804A1 (priority 1993, dated 1994)
“And” between values parts separate entries of the source, which are not always exact repeats. Identical values can stand only once. Like-named read-outs stand apart in the source and are kept apart here.

What was measured:
[1] = Despair test (Porsolt behavioural test, duration of immobility); format: in vivo, Male Swiss mice (CD strain, Charles River); conditions: mice; for <%: decrease of immobility vs dose 0; for Duration of immobility: one hour before testing
Method: This behavioural test developed by R.D. Porsolt et al. (Arch. int. Pharmacodyn. 229, 327-336, 1977) is commonly used to evaluate the activity of antidepressant agents.
Male Swiss mice (CD strain, Charles River) weighing 30 g were used and assigned at random to the various treatment groups.
The mice were plunged individually into a Plexiglas cylinder of 25 cm in height and 9 cm in diameter, filled with water at 24°C, for a 6 min latency up to 6 cm from the upper lip.
The duration of the test was 6 minutes. The time during which the animal kept floating passively was measured starting from the 2nd minute (duration of immobility).
One hour before testing, sodium gamma-hydroxybutyrate (NaGHB) as an acqueous suspension additioned of non-ionic surfactant Tween was administered by i.p. injection in a volume of 10 ml/kg, or per os.
Blind tests were performed. The statistical analysis of the data was performed, whenever possible, by Student's t-test, otherwise by Mann Whitney's non-parametric test.

[2] = set-up: species or system Male Sprague-Dawley rats; conditions: rat, in vivo
[3] = Light/dark exploration test; format: in vivo, mouse; conditions: 10 mg/kg ip, total hours (32) referred to all animals, 8 animals, 4 hours; for Dark section: controls 14; for Lit section: controls 18
Method: The test is performed with a cage subdivided into two sections, a dark and a lit one.
Evidence was provided that the mice treated with adequate doses of anxiolytic drugs, e.g. Diazepam or Buspirone, spend a longer time in the lit section than controls.
The anxiolytic activity, if any, of the molecules can be evaluated on the basis of the time spent in the lit section.
The total duration of the test for each group of 8 animals was 4 hours.
The data are expressed as total hours (32) referred to all animals.

Toxicity (LD50), Table 6 = conditions: rat, in vivo, rats, read-out: LD₅₀
Text: The toxicity of gamma-hydroxybutyrate sodium salt to rats compared with antidepressants and anxiolytics known to the prior art is shown in Table 6.

[4] = rats, ip; antidepressants and anxiolytics known to the prior art; cited from earlier work

## O=C([O-])CCCO.[Na+] [NaGHB, sodium gamma-hydroxybutyrate]
[1]; ip, 5 mg/kg
  <%: 15%
  Duration of immobility: 179 ± 24 s
[1]; ip, 10 mg/kg
  <%: 27%
  Duration of immobility: 153 ± 19 s
[1]; ip, 20 mg/kg
  <%: 36%
  Duration of immobility: 134 ± 26 s
[1]; ip, 40 mg/kg
  <%: 43%
  Duration of immobility: 120 ± 12 s
[1]; per os, 20 mg/kg
  <%: 17%
  Duration of immobility: 189 ± 23 s
[1]; per os, 50 mg/kg
  <%: 40%
  Duration of immobility: 137 ± 16 s
[1]; per os, 100 mg/kg
  <%: 42%
  Duration of immobility: 133 ± 31 s
[2]
  mean reaction time: decreased mean reaction time
  number of attempts to escape: increased number of attempts to escape
[2]; 10 mg/kg
  difference between the group of controls and the CNaGHB group: no significant difference
[2]; ip, 10 mg/kg
  Mean reaction time, mean ± S.E.: 5.76±0.34 and 5.4±1.0
  No. of escape failures, mean ± S.E.: 21.3±1.1 and 23.6±2.6
[3]
  Dark section: 9 total hours
  Lit section: 23 total hours
Toxicity (LD50), Table 6; po, os
  LD50: 12400 mg/kg
Toxicity (LD50), Table 6; ip
  LD50: 3280 mg/kg

## CN1C(=O)CN=C(c2ccccc2)c2cc(Cl)ccc21 [Diazepam]
[3]
  Dark section: 7 total hours
  Lit section: 25 total hours

## O=C1CC2(CCCC2)CC(=O)N1CCCCN1CCN(c2ncccn2)CC1 [Buspirone]
[3]
  Dark section: 10 total hours
  Lit section: 22 total hours
[4]
  LD₅₀: 136 mg/kg
